In brackets after ≈: the same amount, converted by molar mass. Like-named read-outs stand apart in the source and are kept apart here. Bounds are passed on as bounds.

The test system of one test is 23S rRNA. The conditions noted are these: protein-free 23S rRNA extracts (Noller et al., 1992); cited from earlier work.
A further test deals with E. coli. More on the design: key: HS, hypersensitive; R, resistant; S, sensitive. The following applies: cited from earlier work.
A further test has as its system P. acnes. More on the design: key: HS, hypersensitive; R, resistant; S, sensitive. The conditions noted are these: cited from earlier work.
A further test has as its system M. pneumoniae. Details: key: HS, hypersensitive; R, resistant; S, sensitive. The conditions noted are these: cited from earlier work.
The test system of a further test is Helicobacter. The conditions noted are these: cited from earlier work.
Test [1] has as its system H. pylori. The test can be described thus: MIC value of conventionally characterized H. pylori isolates (clarithromycin). Type of test: cell-based, Helicobacter pylori. Details: MIC value: unit not given beside the values. The following applies: for MIC: Helicobacter pylori. An excerpt:
Evaluating the MIC value determination by in-situ hybridization using conventionally characterized H. pylori isolates.

Test [2] concerns H. pylori. More on the design: key: HS, hypersensitive; R, resistant; S, sensitive. The conditions noted are these: cited from earlier work.
A further test deals with M. intracellulare. More on the design: key: HS, hypersensitive; R, resistant; S, sensitive. The conditions noted are these: cited from earlier work.

For the compound `CO[C@@H]1[C@@H](O[C@@H]2O[C@H](C)[C@@H](O[C@H]3C[C@@](C)(O)[C@@H](OC(=O)CC(C)C)[C@H](C)O3)[C@H](N(C)C)[C@H]2O)[C@@H](CC=O)C[C@@H](C)C(=O)/C=C/[C@@H]2O[C@@H]2C[C@@H](C)OC(=O)C[C@H]1OC(C)=O` [carbomycin], the “Inhibition of in-vitro peptidyltransferase activity” value in the test on 23S rRNA was “able to inhibit”.

Take `O=C(N[C@H](CO)[C@H](O)c1ccc([N+](=O)[O-])cc1)C(Cl)Cl` [chloramphenicol]: the Phenotype entry in the test with E. coli (23S rRNA mutation A2503C) is on record as “Cam^R”; with E. coli (23S rRNA mutation G2032A) it was “R”; in the test on E. coli (23S rRNA mutation G2032C), “S”; in the test with E. coli (23S rRNA mutation G2032U), “S”; in the test with E. coli (23S rRNA mutation G2057A), “Ery^R, Cam^R”.

Take `CC[C@H]1OC(=O)[C@H](C)[C@@H](O[C@H]2C[C@@](C)(OC)[C@@H](O)[C@H](C)O2)[C@H](C)[C@@H](O[C@@H]2O[C@H](C)C[C@H](N(C)C)[C@H]2O)[C@](C)(O)C[C@@H](C)C(=O)[C@H](C)[C@@H](O)[C@]1(C)O` [erythromycin]: the Phenotype result in the test with P. acnes (23S rRNA mutation A2058G) is listed as “Cla^R, Ery^R”; in the test on P. acnes (23S rRNA mutation A2059G), “Cla^R, Ery^R”; in the test with P. acnes (23S rRNA mutation G2057A) it was “Cla^R, Ery^R”; with E. coli (23S rRNA mutation A2058G), “Ery^R”; in the test with E. coli (23S rRNA mutation A2058U), “Ery^R”; in the test on E. coli (23S rRNA mutation C2611U), “Ery^RLin^RSgb^R”. The Phenotype result in the test on E. coli (23S rRNA mutation G2032A) is listed as “HS”; with E. coli (23S rRNA mutation G2032C) it was “HS”; in the test with E. coli (23S rRNA mutation G2032U), “HS”; with E. coli (23S rRNA mutation G2057A), “Ery^R, Cam^R”; with M. pneumoniae (23S rRNA mutation A2058G), “Ery^R”; in the test on M. pneumoniae (23S rRNA mutation A2059G) it was “Ery^R”.

Regarding `O=C([O-])c1ccccc1[O-].[Bi+3].[OH-]` [BSS], in the test on Helicobacter, the “Effect on Helicobacter” value is “bactericidal effect”.

As for `CCC[C@@H]1C[C@@H](C(=O)N[C@@H]([C@H]2O[C@H](SC)[C@H](O)[C@@H](O)[C@H]2O)[C@@H](C)O)N(C)C1` [lincomycin], the Phenotype entry with E. coli (23S rRNA mutation C2611U) is given as “Ery^RLin^RSgb^R”.

Consider `CC[C@H]1OC(=O)[C@H](C)[C@@H](O[C@H]2C[C@@](C)(OC)[C@@H](O)[C@H](C)O2)[C@H](C)[C@@H](O[C@@H]2O[C@H](C)C[C@H](N(C)C)[C@H]2O)[C@](C)(OC)C[C@@H](C)C(=O)[C@H](C)[C@@H](O)[C@]1(C)O` [clarithromycin], for which the MIC value in the test with H. pylori [1] (H. pylori strain FD591) was 16/32. Also, the MIC in the test on H. pylori [1] (H. pylori strain HH531) is 48 µg/mL (≈ 64.2 µM); against H. pylori [1] (H. pylori strain KJ472) it was 16 µg/mL (≈ 21.4 µM); with H. pylori [1] (H. pylori strain MC028), 24 µg/mL (≈ 32.1 µM); against H. pylori [1] (H. pylori strain MC132) it was 12 µg/mL (≈ 16 µM); against H. pylori [1] (H. pylori strain MC141) it was more than 256 µg/mL; with H. pylori [1] (H. pylori strain MPS1726), more than 256 µg/mL. In addition, the MIC in the test on H. pylori [1] (H. pylori strain MPS1765) was more than 256 µg/mL; against H. pylori [1] (H. pylori strain MPS3137), 96 µg/mL (≈ 128 µM); against H. pylori [1] (H. pylori strain MPS3286), more than 256 µg/mL. For the same compound, the Phenotype entry in the test with H. pylori [2] (23S rRNA mutation A2053C) is listed as “Cla^R”; in the test with H. pylori [2] (23S rRNA mutation A2053G), “Cla^R”; in the test with H. pylori [2] (23S rRNA mutation A2059G) it was “Cla^R”; with P. acnes (23S rRNA mutation A2058G), “Cla^R, Ery^R”; with P. acnes (23S rRNA mutation A2059G) it was “Cla^R, Ery^R”; in the test with P. acnes (23S rRNA mutation G2057A), “Cla^R, Ery^R”. Moreover, the Phenotype entry in the test with M. intracellulare (23S rRNA mutation A2053C), with M. intracellulare (23S rRNA mutation A2058G) and in the test on M. intracellulare (23S rRNA mutation A2058U) was “Cla^R” in each case.

The values above are taken from patent publication US7005257B1, “Detection of antibiotic resistance in microorganisms” (priority 1998, dated 2006).
